Source: ChEMBL document CHEMBL5576054, “Lead compound profiling for small molecule inhibitors of the REV1-CT/RIR Translesion synthesis Protein-Protein interaction” (Bioorg Med Chem, 2024)
In brackets after ≈: the same amount, converted by molar mass. One block for each compound: values may come before it. Activity calls are given as the source filed them. No cut-off for these calls is given here.

Key:
[1] = Disruption of C-terminal REV-1/FAM-tagged Pol kappa RIR (unknown origin) interaction incubated for 1 hr by FP assay; parameters: species or system Homo sapiens
[2] = Solubility of compound in PBS at pH 4; format: physicochemical; details: buffer
[3] = Solubility of compound in PBS at pH 7.4; format: physicochemical
[4] = Metabolic stability in human liver microsomes assessed as half life at 1 uM incubated upto 60 mins by LC-MS/MS analysis; format: ADME, Microsome; details: 1 h
[5] = Metabolic stability in human liver microsomes assessed as intrinsic clearance at 1 uM incubated upto 60 mins by LC-MS/MS analysis; format: ADME, Microsome; details: 1 h
[6] = target: T1, DNA repair protein REV1 (Homo sapiens) (UniProt Q9UBZ9); experiment: Binding affinity to C-terminal human REV-1 incubated for 30 mins by MST assay
T1 sequence (whole entry): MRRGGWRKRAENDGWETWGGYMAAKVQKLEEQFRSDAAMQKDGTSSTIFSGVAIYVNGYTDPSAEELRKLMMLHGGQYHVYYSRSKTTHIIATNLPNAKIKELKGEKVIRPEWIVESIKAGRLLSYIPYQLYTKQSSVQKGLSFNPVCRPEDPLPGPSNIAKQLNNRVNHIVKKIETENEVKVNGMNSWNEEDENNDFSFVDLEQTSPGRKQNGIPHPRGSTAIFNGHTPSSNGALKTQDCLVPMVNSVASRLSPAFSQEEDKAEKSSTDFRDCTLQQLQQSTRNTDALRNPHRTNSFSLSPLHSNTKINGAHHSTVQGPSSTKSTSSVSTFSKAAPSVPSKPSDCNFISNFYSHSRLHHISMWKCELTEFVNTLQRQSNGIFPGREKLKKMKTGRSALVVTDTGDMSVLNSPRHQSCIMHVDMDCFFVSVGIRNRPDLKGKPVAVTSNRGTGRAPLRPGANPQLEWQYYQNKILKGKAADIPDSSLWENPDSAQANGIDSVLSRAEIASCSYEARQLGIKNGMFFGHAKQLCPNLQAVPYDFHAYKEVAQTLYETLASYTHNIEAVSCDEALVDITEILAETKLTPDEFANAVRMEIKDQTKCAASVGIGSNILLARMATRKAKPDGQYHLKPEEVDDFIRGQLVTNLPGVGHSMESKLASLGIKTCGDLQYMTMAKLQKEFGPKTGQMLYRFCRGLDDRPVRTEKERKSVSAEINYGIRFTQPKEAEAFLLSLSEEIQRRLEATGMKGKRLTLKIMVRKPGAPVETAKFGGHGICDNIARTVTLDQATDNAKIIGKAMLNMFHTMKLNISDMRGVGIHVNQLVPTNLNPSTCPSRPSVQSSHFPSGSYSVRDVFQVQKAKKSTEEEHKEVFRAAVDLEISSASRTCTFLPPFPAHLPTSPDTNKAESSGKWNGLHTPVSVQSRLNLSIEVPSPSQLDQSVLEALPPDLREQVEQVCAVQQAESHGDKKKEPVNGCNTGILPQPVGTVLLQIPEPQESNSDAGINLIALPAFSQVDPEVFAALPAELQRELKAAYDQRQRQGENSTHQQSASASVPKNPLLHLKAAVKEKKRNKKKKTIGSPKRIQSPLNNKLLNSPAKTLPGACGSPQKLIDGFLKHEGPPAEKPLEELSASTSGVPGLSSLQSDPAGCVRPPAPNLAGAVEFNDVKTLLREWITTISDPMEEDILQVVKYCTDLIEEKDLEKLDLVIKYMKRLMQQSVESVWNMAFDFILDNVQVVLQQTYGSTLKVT

DNA repair protein REV1 = target: T2, DNA repair protein REV1 (Homo sapiens, UniProt Q9UBZ9); experiment: Binding affinity to C-terminal human REV-1 assessed as dissociation constant incubated for 30 mins by MST assay
T2 sequence (Q9UBZ9 whole entry): T1 sequence (whole entry)

[7] = Half life in CD-1 mouse at 1 mg/kg, iv by LC-MS/MS analysis; format: ADME, organism-based; details: mouse, in vivo, iv, 1 mg/kg
[8] = C0 in CD-1 mouse at 1 mg/kg, iv by LC-MS/MS analysis; format: ADME, organism-based; details: mouse, in vivo, iv, 1 mg/kg
[9] = AUClast in CD-1 mouse at 1 mg/kg, iv by LC-MS/MS analysis; format: ADME, organism-based; details: in vivo
[10] = AUC (infinity) in CD-1 mouse at 1 mg/kg, iv by LC-MS/MS analysis; format: ADME, organism-based; details: in vivo
[11] = Area under curve extrapolated from the last time point to infinity in CD-1 mouse at 1 mg/kg, iv by LC-MS/MS analysis; format: ADME, organism-based; details: in vivo
[12] = MRT (infinity) in CD-1 mouse at 1 mg/kg, iv by LC-MS/MS analysis; format: ADME, organism-based; details: mouse, in vivo, iv, 1 mg/kg
[13] = Dose normalized AUClast in CD-1 mouse at 1 mg/kg, iv by LC-MS/MS analysis; format: ADME, organism-based; details: in vivo
[14] = Volume of distribution at steady state in CD-1 mouse at 1 mg/kg, iv by LC-MS/MS analysis; format: ADME, organism-based; details: mouse, in vivo, iv, 1 mg/kg
[15] = Half life in CD-1 mouse at 100 mg/kg, ip by LC-MS/MS analysis; format: ADME, organism-based; details: in vivo
[16] = Tmax in CD-1 mouse at 100 mg/kg, ip by LC-MS/MS analysis; format: ADME, organism-based; details: in vivo
[17] = Cmax in CD-1 mouse at 100 mg/kg, ip by LC-MS/MS analysis; format: ADME, organism-based; details: in vivo
[18] = AUClast in CD-1 mouse at 100 mg/kg, ip by LC-MS/MS analysis; format: ADME, organism-based; details: in vivo
[19] = AUC (infinity) in CD-1 mouse at 100 mg/kg, ip by LC-MS/MS analysis; format: ADME, organism-based; details: in vivo
[20] = Area under curve extrapolated from the last time point to infinity in CD-1 mouse at 100 mg/kg, ip by LC-MS/MS analysis; format: ADME, organism-based; details: in vivo
[21] = MRT (infinity) in CD-1 mouse at 100 mg/kg, ip by LC-MS/MS analysis; format: ADME, organism-based; details: in vivo
[22] = Dose normalized AUClast in CD-1 mouse at 100 mg/kg, ip by LC-MS/MS analysis; format: ADME, organism-based; details: in vivo
[23] = Oral bioavailability in CD-1 mouse at 100 mg/kg by LC-MS/MS analysis; format: ADME, organism-based; details: in vivo
[24] = Toxicity in BALB/c nude mouse assessed as effect on body weight at 30 to 100 mg/kg, po qd for 7 days; format: organism-based; details: in vivo, 168 h, dose 30-100 mg/kg, time 7 day
[25] = Toxicity in BALB/c nude mouse assessed as visual signs of toxicity at 30 to 100 mg/kg, po qd for 7 days; format: organism-based; details: in vivo, 168 h, dose 30-100 mg/kg, time 7 day
[26] = Toxicity in BALB/c nude mouse assessed as general impairment at 30 to 100 mg/kg, po qd for 7 days; format: organism-based; details: in vivo, 168 h, dose 30-100 mg/kg, time 7 day
[27] = Toxicity in BALB/c nude mouse assessed as decrease in animal weight at 200 mg/kg, po qd measured for 2 days; format: organism-based; details: in vivo, 48 h, time 2 day
[28] = Toxicity in BALB/c nude mouse assessed as animal death at 200 mg/kg, po qd measured for 3 days; format: organism-based; details: in vivo, 72 h, time 3 day
[29] = Toxicity in BALB/c nude mouse administered orally once daily for 7 days; details: in vivo, route po, time 7 day

IC50 [1]: > 100 µM
Structure (SMILES): CC(=O)N1CCC(C(=O)NCCc2cccs2)CC1

solubility [2]: 45.5 µM (≈ 20.9 µg/mL)
solubility [3]: 177 µM (≈ 81.2 µg/mL)
t1/2 [4]: 3.4 min
intrinsic clearance (CLint) [5]: 202 µL/min/mg
Structure (SMILES): CC(=O)C(C)n1c(CN2CCN(c3cccc(Cl)c3)CC2)nc2c1c(=O)n(C)c(=O)n2C (stereo unspecified)

Structure (SMILES): Cc1cccn2c(=O)c3cc(C(=O)N[C@@H](C)c4ccccc4)c(N)[n+](CCOCCO)c3nc12
IC50 [1]: 1.6 µM
Activity [6]: inactive
solubility [2]: 302 µM
solubility [3]: 51.7 µM
t1/2 [4]: 97.6 min
intrinsic clearance (CLint) [5]: 14.2 µL/min/mg

Structure (SMILES): C=CCOc1cccc(C(=O)Nc2sc(CCC)cc2C(=O)OCC)c1
IC50 [1]: 66.2 µM

solubility [2]: 11.7 µM (≈ 4.57 µg/mL)
solubility [3]: 10 µM (≈ 3.91 µg/mL)
t1/2 [4]: 49.9 min
intrinsic clearance (CLint) [5]: 27.8 µL/min/mg
Structure (SMILES): CCCCc1ccc(-n2nnc(C(=O)N(C)C3CCS(=O)(=O)C3)c2C)cc1 (stereo unspecified)

Structure (SMILES): C=CCOc1ccc(C(=O)Nc2sc(CCC)cc2C(=O)OCC)cc1
IC50 [1]: 25.3 µM

Structure (SMILES): Cc1cc(C)c2nc(-c3ccncc3)cc(C(=O)NCCCn3ccnc3)c2c1
IC50 [1]: 6.7 µM
Kd (DNA repair protein REV1): > 200 µM
solubility [2]: 268 µM (≈ 103 µg/mL)
solubility [3]: 146 µM (≈ 56.3 µg/mL)
t1/2 [4]: 4.7 min
intrinsic clearance (CLint) [5]: 148 µL/min/mg

Structure (SMILES): CCCc1cc(C(=O)OCC)c(NC(=O)C2CCCNC2)s1 (stereo unspecified)
IC50 [1]: 1.2 µM

Structure (SMILES): CCOC(=O)c1c(NC(=O)C2CCN(C(C)=O)CC2)sc2c1CCCC2
IC50 [1]: 5.8 µM

Structure (SMILES): CCCc1cc(C(=O)OC)c(NC(=O)C2CCN(C(C)=O)CC2)s1
IC50 [1]: 4.1 µM
Kd (DNA repair protein REV1): 6.7 µM
intrinsic clearance (CLint) [5]: 18.8 µL/min/mg
t1/2 [7]: 16.9 min
C0 [8]: 200 ng/mL
AUC(0-t) [9]: 37.3 ng·h/mL
AUC(0-inf) [10]: 38.2 ng·h/mL
%AUCextra [11]: 2.39%
MRT [12]: 13.5 min
AUClast/dose [13]: 37.3 ng·h/mL
Vdss [14]: 5.96 L/kg
half-life [15]: 340 min
Tmax [16]: 15 min
Cmax [17]: 2780 ng/mL
AUC(0-t) [18]: 2280 ng·h/mL
AUC(0-inf) [19]: 2320 ng·h/mL
%AUCextra [20]: 1.74%
MRT inf [21]: 169 min
AUClast/dose [22]: 22.8 ng·h/mL
F [23]: 60.8%
Activity [24]: Non-Toxic
Activity [25]: Non-Toxic
Activity [26]: Non-Toxic
Activity [27]: Toxic
Activity [28]: Toxic
MTD at 168 h [29]: ≤ 100 mg/kg

Structure (SMILES): CC(=O)N1CCC(C(=O)NCc2cccs2)CC1
IC50 [1]: 16.4 µM

Structure (SMILES): CCCc1cc(C(=O)OCC)c(NC(=O)c2ccccc2)s1
IC50 [1]: 4.4 µM

Structure (SMILES): CCCc1cc(C(=O)OCC)c(NC(=O)c2cccc(O)c2)s1
IC50 [1]: 2.5 µM

IC50 [1]: 6.2 µM
Kd (DNA repair protein REV1): > 200 µM
solubility [2]: 1.3 µM (≈ 0.519 µg/mL)
solubility [3]: 0.7 µM (≈ 0.28 µg/mL)
t1/2 [4]: 23.6 min
intrinsic clearance (CLint) [5]: 58.8 µL/min/mg
Structure (SMILES): COc1ccc(OC)c(-c2csc(N3CCN(C(=O)c4ccco4)CC3)n2)c1

Structure (SMILES): CCCc1cc(C(=O)OC)c(NC(=O)c2ccccc2)s1
IC50 [1]: 4.7 µM
